Results as given in PMC11524583, “Neurons enhance blood–brain barrier function via upregulating claudin-5 and VE-cadherin expression due to glial cell line-derived neurotrophic factor secretion” (eLife, 2024).

How the values were obtained:
Assay type in all cases: cell-based, Homo sapiens
claudin-5 = experiment: Western blot of claudin-5 expression in hCMEC/D3 cells; settings: for GDNF-induced claudin-5 expression: 200 pg/ml GDNF, 3 μM SPP-86, 5 μM PP2, 3 μM LY294002, 2 μM U0126, 5 μM SP600125, 2 μM SB203580; for GDNF-induced claudin-5 expression / US-CM-induced claudin-5 expression: anti-GDNF antibody 0.25, 0.5, 1.0 μg/ml; for US-CM-induced claudin-5 expression: 3 μM SPP-86, 5 μM PP2, 3 μM LY294002, 2 μM U0126
Method: (§1) Whole-cell and tissue lysates, nucleoprotein, and cytoplasmic protein were prepared using RIPA Lysis Buffer (Beyotime, Shanghai, China) as the described method ([Wu et al., 2021]). Proteins were separated through sodium dodecyl sulfate–polyacrylamide gel electrophoresis and transferred onto nitrocellulose or polyvinylidene difluoride membranes. The membranes were blocked with 5% skim milk and incubated with corresponding primary antibodies at 4°C overnight. After being washed with Tris-buffered saline Tween buffer, the membranes were incubated with secondary antibodies (Cell Signaling Technology, MA, USA) at 1:3000 dilution: Anti-mouse IgG, HRP-linked Antibody (#7076), Anti-rabbit IgG, HRP-linked Antibody (#7074). Protein levels were visualized using a highly sensitive ECL western blotting substrate and a gel imaging system (Tanon Science & Technology, Shanghai, China).
(§2) CM of U251 cells (U-CM), SH-SY5Y cells (S-CM), or co-culture of U251 and SH-SY5Y cells (US-CM) was prepared. U251 cells were seeded at the top of the insert membrane and suspended on 6-well plates seeded with differentiated SH-SY5Y cells to co-culture U251 cells with SH-SY5Y cells. The medium was collected every 24 hr. The CMs were subsequently used for hCMEC/D3 cell culture after filtrating with 0.2 μm filters for 144 hr. The levels of GDNF, bFGF, IGF-1, and TGF-β in CMs were measured using corresponding ELISA kits according to the manufacturers’ instructions.
(§3) Exogenous and endogenous GDNF in the medium was neutralized with anti-GDNF antibody (#AF-212-NA, R&D system, Minneapolis, MN, USA). 0.25, 0.5, and 1.0 μg/ml anti-GDNF antibody was added into the US-CM or medium containing 200 pg/ml GDNF, and then the medium was preincubated at 4°C for 1 hr. The hCMEC/D3 cells were incubated with 200 pg/ml GDNF or US-CM containing anti-GDNF antibody or not for 6 days, and then cell lysate was collected for western blot. The medium was replaced every 24 hr.
(§4) Here, hCMEC/D3 cells were plated in the plates or culture dishes at 6 × 10^4 cells/cm^2 and transfected with 10 nM of negative control or human FOXO1, ETS1, and CDH5 siRNA (Tsingke Biotechnology, Beijing, China) for 12 hr using Lipofectamine 3000 (Invitrogen, Carlsbad, CA, USA) reagent according to the manufacturer’s instructions. Cells were then incubated with a medium containing GDNF for 72 hr.
(§5) The plasmids encoding FOXO1 (EX-Z7404-M02) were constructed by GeneCopoeia (Rockville, MD, USA). The hCMEC/D3 cells were plated in plates or dishes at 6 × 10^4 cells/cm^2. They were subsequently transfected with 1 µg of negative control or plasmids encoding FOXO1 6 hr using Lipofectamine 3000 reagent according to the manufacturer’s instructions. Transfected cells were then incubated with the medium containing GDNF for 72 hr.

VE-cadherin = experiment: Western blot of VE-cadherin expression in hCMEC/D3 cells; settings: for GDNF-induced VE-cadherin expression / US-CM-induced VE-cadherin expression: hCMEC/D3 cells, anti-GDNF antibody 0.25, 0.5, 1.0 μg/ml; for GDNF-induced VE-cadherin expression: 200 pg/ml GDNF, 3 μM SPP-86, 5 μM PP2, 3 μM LY294002, 2 μM U0126, 5 μM SP600125, 2 μM SB203580; for US-CM-induced VE-cadherin expression: 3 μM SPP-86, 5 μM PP2, 3 μM LY294002, 2 μM U0126
Method: as §1, §2, §3, §4

p-AKT/AKT = experiment: Western blot of p-AKT/AKT in hCMEC/D3 cells; settings: hCMEC/D3 cells, US-CM; 3 μM LY294002 or anti-GDNF antibody
Method: as §1, §3

FOXO1 = experiment: Western blot of FOXO1 (p-FOXO1/FOXO1, total, cytoplasmic, nuclear) in hCMEC/D3 cells; settings: hCMEC/D3 cells; LY294002 or U0126
Method: as §1, §4, §5

ETS1 = experiment: Western blot of total and nuclear ETS1 in hCMEC/D3 cells; settings: hCMEC/D3 cells, 200 pg/ml GDNF; LY294002 or U0126
Method: as §1, §4

p-ERK/ERK = experiment: Western blot of p-ERK/ERK in hCMEC/D3 cells; settings: hCMEC/D3 cells, US-CM; 2 μM U0126 or anti-GDNF antibody
Method: as §1, §3

hCMEC/D3 cells = experiment: EdU incorporation assay; settings: for EdU incorporation, EdU + fraction / EdU incorporation, EdU − fraction: 6 days
Method: The cells were incubated with medium containing 10 μM Edu for 2 hr. […] The EdU incorporation assay was measured using the BeyoClick EdU Cell Proliferation Kit (Beyotime Biotechnology, Shanghai, China) according to the manufacturer’s instructions. The samples were determined on the FACSCelesta flow cytometer (Becton, Dickins on and Company, USA), and data were analyzed by Flowjo 10.4 software.

[1] = hCMEC/D3 cells incubated with conditioned medium or neurotrophic factor vs normal medium

Molecule | GDNF-induced claudin-5 expression (claudin-5; hCMEC/D3 cells) | US-CM-induced claudin-5 expression (claudin-5; hCMEC/D3 cells) | upregulation of claudin-5 expression induced by FOXO1 siRNA and GDNF (claudin-5; hCMEC/D3 cells, LY294002) | GDNF-induced VE-cadherin expression (VE-cadherin) | US-CM-induced VE-cadherin expression (VE-cadherin) | US-CM-induced p-AKT (p-AKT/AKT) | GDNF-induced alterations in total p-FOXO1, cytoplasmic p-FOXO1, cytoplasmic FOXO1, and nuclear FOXO1 (FOXO1) | GDNF-induced nuclear ETS1 expression (ETS1) | GDNF-induced total ETS1 expression (ETS1) | US-CM-induced p-ERK (p-ERK/ERK) | claudin-5 expression (claudin-5; [1]) | VE-cadherin expression (VE-cadherin; [1]) | EdU incorporation, EdU + fraction (hCMEC/D3 cells; bFGF 6 ng/mL) | EdU incorporation, EdU − fraction (hCMEC/D3 cells; bFGF 6 ng/mL) | EdU incorporation, EdU + fraction (hCMEC/D3 cells; bFGF 20 ng/mL) | EdU incorporation, EdU − fraction (hCMEC/D3 cells; bFGF 20 ng/mL) | EdU incorporation, EdU + fraction (hCMEC/D3 cells; bFGF 60 ng/mL) | EdU incorporation, EdU − fraction (hCMEC/D3 cells; bFGF 60 ng/mL) | cell proliferation (hCMEC/D3 cells; bFGF (6, 20, and 60 ng/ml) for 6 days, EdU incorporation and cell viability)
O=c1cc(N2CCOCC2)oc2c(-c3ccccc3)cccc12 [LY294002, reference compound] | significantly suppressed | markedly reversed | reversed | significantly suppressed | markedly reversed | markedly reversed | significantly reversed | markedly attenuated | markedly attenuated |  |  |  |  |  |  |  |  |  | 
N#CC(=C(/N)Sc1ccccc1N)/C(C#N)=C(/N)Sc1ccccc1N [U0126, reference compound] | significantly suppressed | markedly reversed |  | significantly suppressed | markedly reversed |  |  | markedly attenuated | markedly attenuated | markedly reversed |  |  |  |  |  |  |  |  | 
bFGF: basic fibroblast growth factor, recombinant protein |  |  |  |  |  |  |  |  |  |  | without affecting | without affecting | 21.1 | 78.9 | 28.3 | 71.7 | 31.0 | 69.0 | increased cell proliferation
